Measured values as given in patent US10307471B2, “Immunity inducer for saccharide antigens” (NATIONAL INSTITUTE OF ADVANCED INDUSTRIAL SCIENCE AND …, priority 2013, dated 2019).
“Also recorded” adds a separate entry of the source.

Experiments:
[1] = tested on: immunogen; assay: Serum antibody titer to the immunogen after immunity induction (ELISA); type: in vivo, mouse; settings: for antibody titer in the IgG subclass: antigen not specified, data not shown; for serum antibody titer to the immunogen, IgM subclass: mouse serum 3 and 7 days after final immunization vs unimmunized, liposome method with Lipid-A, ELISA; for serum antibody titer to the immunogen, IgG subclass: mouse serum after final immunization (7 days where stated) vs unimmunized, only primary additional immunization
Procedure: (§1) Each immunogen was subcutaneously immunized on the first day, and additional immunization was abdominally conducted after two weeks. The blood was collected after 3 days and 7 days from the additional immunization to prepare serums. Antibody titers in the obtained serums were evaluated by ELISA. An immunogen and a glycoprotein containing an objective carbohydrate were used as solid-phased antigens by ELISA, and each was evaluated as an antibody titer to the immunogen and an antibody titer to the objective carbohydrate (FIGS. 1 to 4).
(§2) In order to evaluate subclasses (IgM and IgG) of produced immunoglobulin, evaluation was conducted using antibodies specific to IgM and IgG as secondary antibodies. An antibody titer was evaluated as an activity of peroxidase that is a labeling enzyme of a secondary antibody. TMB was used as a chromogenic substrate of peroxidase, and an intensity of an absorbance at 450 nm after adding 2 N-sulfuric acid after the reaction was evaluated. FIGS. 1 to 3 illustrate antibody titers of IgM subclass, and FIG. 4 illustrates antibody titers of IgG subclass.
Next, each of racemic forms of various immunity inducers (a1, b1 and c1) synthesized in Examples (1-1), (1-2) and (1-3) was dissolved into s lipid containing cholesterol and phospholipid with an adjuvant (Lipid-A), and immunized a mouse being a host generally producing a monoclonal antibody (C3H/HeN strain) in a liposome method (Eur. J. Immunol., 16, 951-956, 1986) to evaluate the immunity inducing ability.
(§3) Each of the immunity inducers was subcutaneously immunized and additionally abdominally immunized after 2 weeks. After the additional immunization, the blood was collected after 3 days and 7 days, and the serum was examined. The antibody titer in the obtained serum was evaluated by ELISA method. In ELISA method, using two types of antigens of an immunogen and a glycoprotein (Fetuin) containing 6′-Sialyl-LacNAc, 3′-Sialyl-LacNAc and LacNAc structures, they were evaluated as an antibody titer to the immunogen and an antibody titer to the objective carbohydrate, respectively.
(§4) In addition, in order to evaluate subclasses (IgM and IgG) of immunoglobulin, an antibody specific to IgM and IgG was used as a secondary antibody to evaluate the subclasses. The antibody titer was evaluated as an activity of peroxidase that is a labeling enzyme of a secondary antibody. TMB was used for a chromogenic substrate of peroxidase, and an intensity of an absorbance at 450 nm after adding 2 N-sulfuric acid after the reaction was evaluated.
Each of the immunity inducers was subcutaneously immunized on the first day, and the carrier compound was additionally abdominally immunized after 2 weeks. After the additional immunization, the blood was collected after 3 days and 7 days to prepare serums. Antibody titers of the obtained serums were evaluated by ELISA method. In ELISA method, using two types of antigens of an immunogen and a glycoprotein (Fetuin) containing a 6′-Sialyl-LacNAc structure, they were evaluated as an antibody titer to the immunogen and an antibody titer to the objective sugar chain, respectively. In addition, in order to evaluate subclasses (IgM and IgG) of produced immunoglobulin, an antibody specific to IgM and IgG was used as the secondary antibody to evaluate the subclasses. The antibody titer was evaluated as an activity of peroxidase that is a labeling enzyme of the secondary antibody. TMB was used for a chromogenic substrate of peroxidase, and an intensity of an absorbance at 450 nm after adding 2 N-sulfuric acid after the reaction was evaluated. […] Among the evaluated compounds, the antibody titer of a2 was the lowest, and the activity of a3-1 was the highest in the examined compounds.

[2] = tested on: glycoprotein (Fetuin); assay: Serum antibody titer to glycoprotein (Fetuin) after immunity induction (ELISA); type: in vivo; settings: mouse serum 3 and 7 days after final immunization vs unimmunized; Fetuin-a used as antigen for c1
Procedure: as §1
as §2, with “subclass. […]” for “subclass.”
as §3, with “After the additional immunization, the blood was collected after 3 days and 7 days, and the serum was examined.” left out
as §4, with “evaluated. […]” for “evaluated.”

[3] = tested on: glycoprotein (Fetuin) containing a 6′-Sialyl-LacNAc (CDw75) carbohydrate structure; settings: Non Patent Literature 8, cited from earlier work
[4] = tested on: glycoprotein (HL60); assay: Serum antibody titer to HL60 glycoprotein after immunity induction (ELISA); type: in vivo, mouse
Procedure: FIG. 9 illustrates serum antibody titers after immunity inductions with sLe^X-C12L and Le^X-C12L: after immunizing a mouse using each of the sLe^X-C12L and Le^X-C12L compounds as an immunity inducer, an antibody titer of each subclass (IgM and IgG) of immunoglobulin in the serum was evaluated by ELISA. A and B show serum antibody titers of a mouse immunized with sLe^X-C12L, C and D show serum antibody titers of a mouse immunized with Le^X-C12. A and C: Evaluations on an immunogen used as an antigen by ELISA. B: Evaluation on a cell extract (HL60) containing a glycoprotein including an epitope of a target carbohydrate used as an antigen by ELISA. […]
as §1, with “The blood was collected after 3 days and 7 days from the additional immunization to prepare serums.” left out
In order to evaluate subclasses (IgM and IgG) of produced immunoglobulin, evaluation was conducted using antibodies specific to IgM and IgG as secondary antibodies. An antibody titer was evaluated as an activity of peroxidase that is a labeling enzyme of a secondary antibody. […]

Compound | antibody titer in the IgG subclass [1] | serum antibody titer to the immunogen, IgM subclass [1] | serum antibody titer to glycoprotein (Fetuin), IgM subclass [2] | serum antibody titer to the immunogen, IgG subclass [1] | further results
Siaα2,3-Galβ1,4GlcNAcβ1-CerA [b1] | not observed | significantly increased; also recorded: significant increases of antibody titers | significantly increased; also recorded: significant increases of antibody titers |  | 
CCCCCCCCCCCCCCCCCC(=O)NC(CCCCCCCCCC)CO[C@@H]1OC(CO)[C@@H](O[C@@H]2OC(CO[C@]3(C(=O)O)CC(O)[C@@H](NC(C)=O)C([C@H](O)[C@H](O)CO)O3)[C@H](O)C(O)C2O)C(O)C1NC(C)=O (stereo partly drawn) [a1, Siaα2,6Galβ1,4GlcNAcβ1-CerA] | not observed | significantly increased; also recorded: significant increases of antibody titers | significantly increased; also recorded: significant increases of antibody titers |  | 
CCCCCCCCCCC(CO[C@@H]1OC(CO)[C@@H](O[C@@H]2OC(CO[C@]3(C(=O)O)CC(O)[C@@H](NC(C)=O)C([C@H](O)[C@H](O)CO)O3)[C@H](O)C(O)C2O)C(O)C1NC(C)=O)NC(C)=O (stereo partly drawn) [a2, reference compound] |  | significant increases of antibody titers | significant increases of antibody titers |  | rank of antibody titer / activity among the evaluated compounds ([1]; a1, a2, a3-1, a3-2, a3-3 compared, IgM subclass): lowest
phosphatidylethanolamine |  |  |  |  | appearance ratio of positive clones, conventional technique ([3]; 581 wells): 1.3%; positive clones, conventional technique ([3]; out of selected 581 wells): 8 wells
CCCCCCCCCCCCC/C=C/[C@@H](O)C(CO[C@@H]1OC(CO)[C@@H](O[C@@H]2OC(CO)[C@H](O[C@H]3OC(CO)[C@H](O)C(O[C@@H]4OC(CO)[C@H](O)C(O)C4NC(C)=O)C3O)C(O)C2O)C(O)C1O)NC(=O)CCCCCCCCCCCCCCCCCCCCCCC (stereo partly drawn) [Globoside, GalNAcβ1,3Galα1,4Galβ1,4Glcβ1-Cer, reference compound] |  | significantly increased |  | not confirmed | serum antibody titer to the immunogen, IgM subclass ([1]; listed as globoside): significant increase of the antibody titer
CCCCCCCCCCCCCCCCCCCCCCCC(=O)N[C@@H](CCCCCCCCCC)CO[C@@H]1O[C@H](CO)[C@@H](O[C@@H]2O[C@H](CO)[C@H](O)[C@H](O[C@]3(C(=O)O)C[C@H](O)[C@@H](NC(C)=O)[C@H]([C@H](O)[C@H](O)CO)O3)[C@H]2O)[C@H](O[C@@H]2O[C@@H](C)[C@@H](O)[C@@H](O)[C@@H]2O)[C@H]1NC(C)=O [sLe^X-C12L, Siaα2,3Galβ1,4(Fucα1,3)GlcNAcβ1-C12L] |  | significant increases of antibody titers |  | tendency of an increase of an antibody titer | serum antibody titer to glycoprotein (HL60), IgG subclass ([4]; only primary additional immunization): significant increase of an antibody titer; serum antibody titer to glycoprotein (HL60), IgM subclass ([4]; serums after 3 days and 7 days from the immunization): significant increases of antibody titers
